The source of these data is patent publication US10703821B2, “Method for stimulating or enhancing proliferation of cells by activating the mucin 1 (MUC1) receptor” (MINERVA BIOTECHNOLOGIES CORPORATION, priority 2005, dated 2020).

The subject of this assay is PSMGFR region of MUC1. As to the kind of experiment: western blot of ERK2 phosphorylation, competition with anti-PSMGFR. It is filed as cell-based. From the text: FIG. 6 is a western blot of a competition experiment in which small molecules that bind to the PSMGFR region of MUC1 compete with anti-PSMGFR for binding to the site. […] The chemical formula for the competitor compound MN 9 referred to in this figure is […]

With `O=C(c1ccc2ccccc2c1)N1CCc2c([nH]c3ccccc23)C1c1ccc(C(F)(F)F)cc1` (centres unmarked) [MN 9], where the note is “in the presence of competitor small molecule”, the “binding of anti-PSMGFR to the PSMGFR site in competition” value was “the antibody does not bind”. The ERK2 phosphorylation result (in the presence of competitor small molecule and anti-PSMGFR) is on record as “ERK2 phosphorylation is inhibited”.
